Experimental data: ChEMBL document CHEMBL2062495
Calls of active or inactive are those of the source. The calls are words filed in the database; no cut-off is given here. Square brackets hold non-standard residues; d marks the D form. Peptide text beside a SMILES is read from it. * marks the point of attachment. Sta = CC(C)C[C@H](N)[C@@H](O)CC(=O)O; NMe2Val = CC(C)[C@@H](C(=O)*)N(C)C; dNMeF = CN[C@H](Cc1ccccc1)C(=O)O; dHiv = CC(C)[C@@H](O)C(=O)O; Hiv = CC(C)[C@H](O)C(=O)O

Columns and labels:
Dendritic cell [1] = assay: (§1) Inhibition of MHC class 2-dependent antigen processing in DO11.10 TCR transgenic mouse spleen CD11+ dendritic cells assessed as inhibition of whole ovalbumin-induced CD4+ T cell proliferation incubated for 1 hr prior to whole ovalbumin-challenge measured after 72 hrs by [3H]thymidine incorporation assay; assay type: functional, tissue-based
Dendritic cell [2] = assay: as §1, with “ovalbumin 323 to 339-induced” for “whole ovalbumin-induced”, “ovalbumin 323 to 339 challenge” for “whole ovalbumin-challenge”; assay type: functional, tissue-based

**Q.** With `COC(=O)[C@@H]1CCCN1C(=O)[C@@H](Cc1ccccc1)N(C)C(=O)[C@H](C)NC(=O)[C@@H](NC(=O)C[C@H](O)[C@H](CC(C)C)NC(=O)[C@H](CC(N)=O)NC(=O)[C@H](CC(C)C)NC(=O)[C@H](OC(=O)[C@@H](OC(=O)[C@H](C(C)C)N(C)C)C(C)C)C(C)C)[C@@H](C)O` (NMe2Val-[Hiv][dHiv]LN[Sta]TA[dNMeF]P-OMe) as the compound, how does the inhibition (Dendritic cell [1]) read?
**A.** Its inhibition is “inactive”.

**Q.** What about the inhibition (Dendritic cell [2]) of the same compound?
**A.** The inhibition was “inactive”.
